From patent US11793792B2, “Composition for prevention and treatment of hair growth disorders” (GIULIANI S.P.A., priority 2018, dated 2023)

Columns and labels:
[1] = system: Lef1; experiment: Lef1 gene expression (qRT-PCR) in human hair follicle organ culture; format: cell-based; conditions: microdissected human anagen VI scalp hair follicles; 15 μM; treated 6 hours; normalized on GAPDH; vehicle = 1; N=8 HFs/group from 1 donor
Method: Evidence of the activity of compounds of the invention is provided by the expression of Lymphoid enhancer binding factor-1 (Lef1), which plays an important role in bulge stem cells cell growth and differentiation (International Journal of Medical Sciences 2013; 10 (6):738-746).
These products were reconstituted in DMSO (stock solution) and intermediate or working solutions were prepared diluting the stock or the intermediate solution in William's E medium. […]
RNA was extracted from hair follicles with RNeasy kit (Qiagen, USA), and reverse transcribed with Tetro cDNA synthesis kit (Bioline) according to manufacturer's instructions. qPCR was performed in QuantStudio3 (Thermo Fisher) with Taqman probe for Axin2 (Hs00610344_m1, Thermo Fisher), Lef1 (Hs01547250_m1, Thermo Fisher), b-actin (Hs01060665_g1, Life Technologies) and Gapdh (Hs02758991_g1, Thermo Fisher). Expression levels were calculated with the delta-delta CT method. […]

[2] = system: Lef1; experiment: LEF1 mRNA expression (RT-PCR) in Human Follicle Dermal Papilla Cells (HFDPC); format: cell-based; conditions: 24 h incubation; for Lef1 fold of change mRNA expression: normalized to GAPDH, relative to untreated calibrator (vehicle = 1)
Text: In the present test, Hair cell line (derma papilla cells) were used rather than human hair follicle, as in the experiment of Example 4.
We evaluated the stimulation of Lef1 (marker of hair growth) and we retested compound 1 and compound 5 and we use also included the compound WAY-316660, a relatively non-toxic specific antagonist of SFRP1, which has already been used for the treatment of osteoporosis, for its known hair growth promotion activity (Rif. Hawkshaw et al. Plos Biol, 2018; https://journals.plos.org/plosbiology/article?id=10.1371/journal.pbio.2003705).
Biological Model Human Follicle Dermal Papilla Cells (HFDPC)
The cell line was cultured in Follicle Dermal Papilla Cell medium in 25 cm^2 culture flasks at 37° C., 5% CO2. Every two days confluent cultures were splitted 1:3-1:6, after washing with PBS 1× (without Ca2+ and Mg2+), using Trypsin/EDTA and seed at 2-5·10^4 cell/cm^2, 37° C., 5% CO2.
The expression of LEF1 was investigated by RT-PCR. The analysis was performed according to the reported method (Gibson et al, 1996; Heid et al, 1996) using TaqMan Gene Expression Assay supplied by Applied Biosystems. Briefly, within a gene-specific PCR oligonucleotide primer pair, an oligonucleotide probe labelled with a reporter fluorescent dye (FAM) at the 50-end and a quencher fluorescent dye (TAMURA) at the 30-end was designed. When the probe was intact, the reporter dye emission was quenched. During the extension phase of the PCR cycle, the nucleolytic activity of the DNA polymerase cleaved the hybridization probe and released the reporter dye from the probe. Fluorescence intensity produced during PCR amplifications was monitored by a sequence detector directly in the reaction tube (“real time”). A computer algorithm compared the amount of reporter dye emission with the quenching dye emission and calculated the threshold cycle number (CT) when signals reached ten times the standard deviation of the baseline, from which the levels of the mRNAs transcribed from the various genes tested were obtained (Gibson et al, 1996).
Gene expression analysis involves four following step: • 1. Treatments of cells with active compounds for 24 h; • 2. RNA extraction; • 3. cDNA retro transcription; • 4. Quantitative RT-PCR; Day 1: Seed cells
When the cells (Human Follicle Dermal Papilla Cells) reached approximately 80% confluence, they were harvested with trypsin/EDTA and seeded at a density of 1×10^6 cells/ml into 12-well plates and then incubated at 37° C., 5% CO2 (24 h).
When the cells reached approximately 80% confluence, complete medium was removed; cells were washed once with PBS 1× and the incubated in Human Follicle Dermal Papilla Cells at 37° C., 5% CO2 for at least 24 h;
Compounds to be tested (WAY316606, 1, 5, 7, 17, 18, 20, 21, 24) were dissolved in DMSO and diluted at final concentration in Human Follicle Dermal Papilla Cells.
Cells were then incubated at 37° C., 5% CO2 for different 24 h.
Total RNAs were extracted from the cells using Tri Reagent (Thermo Fisher), that is a single, homogenous solution for the isolation of total RNA. This procedure is an improvement of the single-step method reported by (Chomczynski and Mackey, 1995) for total RNA isolation. Tri Reagent, a mixture of guanidine thiocyanate and phenol in a monophase solution, effectively dissolves DNA, RNA, and protein on homogenization or lysis of tissue sample and contains a unique combination of denaturants and RNase inhibitors and is used in a convenient, single-step disruption/separation procedure.
Total RNA, extracted and quantified, was amplified using the “PRIME SCRIPT RT reagent kit (Perfect Real time) (Takara).
For amplification we used the Real time PCR System Mx3000P (Stratagene) and each total RNA was amplified in duplicate.
The RT-PCR analysis was set, using TaqMan linear probes (Applied Biosystems). Those probes are the most widely used and published detection chemistry for qPCR applications. […]

SMILES | genic expression of Lef1 (mRNA), mean [1] | effect on LEF1 mRNA expression / activity (in words) [2] | effect on LEF1 mRNA expression / activity (in words) ([2]; listed as 1) | Lef1 fold of change mRNA expression [2] | effect on LEF1 mRNA expression / activity (in words) ([2]; listed as 5)
COC(=O)c1c(NC(=O)CC2SC(=N)NC2=O)sc(C)c1C (centres unmarked) [Compound C1, 2-(2-(2-Imino-4-oxo-thiazolidin-5-yl)-acetylamino)-4,5-dimethyl-thiophene-3-carboxylic acid methyl ester] | 3.425 | more active | major induction of Lef1 | 8.43 | –
CCOC(=O)c1c(NC(=O)CC2SC(=N)NC2=O)sc(C)c1C (centres unmarked) [Compound C5, 2-(2-(2-Imino-4-oxo-thiazolidin-5-yl)-acetylamino)-4,5-dimethyl-thiophene-3-carboxylic acid ethyl ester] | 6.134 | more active | – | 6.05 | major induction of Lef1
CCOC(=O)c1c(NC(=O)CC2SC(=N)NC2=O)sc(Br)c1C (centres unmarked) [Compound C7] | – | more active | – | 2.46 | –
COC(=O)c1ccsc1NC(=O)CC1SC(=N)NC1=O (centres unmarked) [Compound C17] | – | more active | – | 2.52 | –
COC(=O)c1cc(-c2ccccc2)sc1NC(=O)CC1SC(=N)NC1=O (centres unmarked) [Compound C18] | – | – | – | 1.56 | –
CCOC(=O)c1c(NC(=O)CC2SC(=N)NC2=O)sc(C)c1-c1ccccc1 (centres unmarked) [Compound C20] | – | – | – | 1.39 | –
CCOC(=O)c1c(C2CC2)csc1NC(=O)CC1SC(=N)NC1=O (centres unmarked) [Compound C21] | – | – | – | 1.79 | –
N=C1NC(=O)C(CC(=O)Nc2scc(C3CCC3)c2C(N)=O)S1 (centres unmarked) [Compound C24] | – | – | – | 1.88 | –
O=S(=O)(NC1CCNCC1)c1cc(S(=O)(=O)c2ccccc2)ccc1C(F)(F)F [WAY-316606, reference compound] | – | – | – | 2.18 | –
